According to ChEMBL document CHEMBL3734705, “Synthesis and in vitro cytotoxicity of novel C-12 substituted-14-deoxy-andrographolide derivatives as potent anti-cancer agents” (2015):

Experiments:
SR = assay: Cytotoxicity against human SR cells assessed as growth level at 10 uM after 48 hrs by SRB assay; assay type: functional
NCI-H23 [1] = assay: Cytotoxicity against human NCI-H23 cells assessed as growth level at 10 uM after 48 hrs by SRB assay; assay type: functional
NCI-H322M = assay: Cytotoxicity against human NCI-H322M cells assessed as growth level at 10 uM after 48 hrs by SRB assay; assay type: functional
[2] = Cytotoxicity against human COLO205 cells assessed as growth level at 10 uM after 48 hrs by SRB assay; assay type: functional, COLO 205
[3] = Cytotoxicity against human HCC2998 cells assessed as growth level at 10 uM after 48 hrs by SRB assay; assay type: functional, HCC 2998
KM12 [4] = assay: Cytotoxicity against human KM12 cells assessed as growth level at 10 uM after 48 hrs by SRB assay; assay type: functional
[5] = Cytotoxicity against human SNB19 cells assessed as growth level at 10 uM after 48 hrs by SRB assay; assay type: functional, SNB-19
[6] = Cytotoxicity against human SNB75 cells assessed as growth level at 10 uM after 48 hrs by SRB assay; assay type: functional, SNB-75
U-251 = assay: Cytotoxicity against human U251 cells assessed as growth level at 10 uM after 48 hrs by SRB assay; assay type: functional
SK-MEL-5 = assay: Cytotoxicity against human SK-MEL-5 cells assessed as growth level at 10 uM after 48 hrs by SRB assay; assay type: functional
[7] = Cytotoxicity against human UACC257 cells assessed as growth level at 10 uM after 48 hrs by SRB assay; assay type: functional, UACC-257
[8] = Cytotoxicity against human IGROV1 cells assessed as growth level at 10 uM after 48 hrs by SRB assay; assay type: functional, IGROV-1
[9] = Cytotoxicity against human OVCAR5 cells assessed as growth level at 10 uM after 48 hrs by SRB assay; assay type: functional, OVCAR-5
[10] = Cytotoxicity against human OVCAR8 cells assessed as growth level at 10 uM after 48 hrs by SRB assay; assay type: functional, OVCAR-8
786-0 = assay: Cytotoxicity against human 786-0 cells assessed as growth level at 10 uM after 48 hrs by SRB assay; assay type: functional
[11] = Cytotoxicity against human Caki1 cells assessed as growth level at 10 uM after 48 hrs by SRB assay; assay type: functional, CAKI-1
[12] = Cytotoxicity against human RXF393 cells assessed as growth level at 10 uM after 48 hrs by SRB assay; assay type: functional, RXF 393
SN12C = assay: Cytotoxicity against human SN12C cells assessed as growth level at 10 uM after 48 hrs by SRB assay; assay type: functional
[13] = Cytotoxicity against human UO31 cells assessed as growth level at 10 uM after 48 hrs by SRB assay; assay type: functional, UO-31
T47D = assay: Cytotoxicity against human T47D cells assessed as growth level at 10 uM after 48 hrs by SRB assay; assay type: functional
[14] = Cytotoxicity against human MOLT4 cells assessed as growth inhibition at 10 uM after 48 hrs by SRB assay; assay type: functional; settings: MOLT-4, 48 h, read-out: GI
NCI-H522 = assay: Cytotoxicity against human NCI-H522 cells assessed as growth inhibition at 10 uM after 48 hrs by SRB assay; assay type: functional; settings: NCI-H522, 48 h, read-out: GI
[15] = Cytotoxicity against human HCT15 cells assessed as growth inhibition at 10 uM after 48 hrs by SRB assay; assay type: functional; settings: HCT-15, 48 h, read-out: GI
HT-29 [16] = assay: Cytotoxicity against human HT-29 cells assessed as growth inhibition at 10 uM after 48 hrs by SRB assay; assay type: functional; settings: HT-29, 48 h, read-out: GI
[17] = Cytotoxicity against human SF268 cells assessed as growth inhibition at 10 uM after 48 hrs by SRB assay; assay type: functional; settings: SF-268, 48 h, read-out: GI
[18] = Cytotoxicity against human SF539 cells assessed as growth inhibition at 10 uM after 48 hrs by SRB assay; assay type: functional; settings: SF-539, 48 h, read-out: GI
[19] = Cytotoxicity against human LOXIMVI cells assessed as growth inhibition at 10 uM after 48 hrs by SRB assay; assay type: functional; settings: LOX IMVI, read-out: GI
Malme-3M = assay: Cytotoxicity against human MALME-3M cells assessed as growth inhibition at 10 uM after 48 hrs by SRB assay; assay type: functional; settings: read-out: GI
[20] = Cytotoxicity against human BT549 cells assessed as growth inhibition at 10 uM after 48 hrs by SRB assay; assay type: functional; settings: BT-549, 48 h, read-out: GI
[21] = Cytotoxicity against human SF295 cells assessed as growth inhibition at 10 uM after 48 hrs by SRB assay; assay type: functional; settings: SF-295, 48 h, read-out: GI
CCRF-CEM = assay: Cytotoxicity against human CCRF-CEM cells after 48 hrs by SRB assay; assay type: functional
K562 = assay: Cytotoxicity against human K562 cells after 48 hrs by SRB assay; assay type: functional; settings: K562, 48 h
NCI-H23 [22] = assay: Cytotoxicity against human NCI-H23 cells after 48 hrs by SRB assay; assay type: functional; settings: NCI-H23, 48 h
[23] = Cytotoxicity against human COLO205 cells after 48 hrs by SRB assay; assay type: functional; settings: COLO 205, 48 h
[24] = Cytotoxicity against human HCT116 cells after 48 hrs by SRB assay; assay type: functional; settings: HCT-116, 48 h
[25] = Cytotoxicity against human HCT15 cells after 48 hrs by SRB assay; assay type: functional; settings: HCT-15, 48 h
HT-29 [26] = assay: Cytotoxicity against human HT-29 cells after 48 hrs by SRB assay; assay type: functional; settings: HT-29, 48 h
KM12 [27] = assay: Cytotoxicity against human KM12 cells after 48 hrs by SRB assay; assay type: functional; settings: KM12, 48 h
[28] = Cytotoxicity against human UACC257 cells after 48 hrs by SRB assay; assay type: functional; settings: UACC-257, 48 h
[29] = Cytotoxicity against human OVCAR4 cells after 48 hrs by SRB assay; assay type: functional; settings: OVCAR-4, 48 h
A498 = assay: Cytotoxicity against human A498 cells after 48 hrs by SRB assay; assay type: functional; settings: A498, 48 h
[30] = Cytotoxicity against human UO31 cells after 48 hrs by SRB assay; assay type: functional; settings: UO-31, 48 h
[31] = read-out: LC50 (the source's name)

C=C1CC[C@@H]2[C@](C)(CO)[C@H](O)CC[C@@]2(C)[C@@H]1C/C=C1/C(=O)OC[C@H]1O [ANDROGRAPHOLIDE]
Activity (SR): 79.53% | Activity (NCI-H23 [1]): 97.89% | Activity (NCI-H322M): 92.74% | Activity [2]: 94.9% | Activity [3]: 114.39% | Activity (KM12 [4]): 80.24% | Activity [5]: 88.03% | Activity [6]: 61.95% | Activity (U-251): 75.79% | Activity (SK-MEL-5): 77.27% | Activity [7]: 76.51% | Activity [8]: 103.71% | Activity [9]: 104.24% | Activity [10]: 84.48% | Activity (786-0): 84.71% | Activity [11]: 96.7% | Activity [12]: 125.24% | Activity (SN12C): 81.73% | Activity [13]: 89.6% | Activity (T47D): 87.76% | inhibition of growth at 10 µM [14]: 1.89% | inhibition of growth at 10 µM (NCI-H522): 82.9% | inhibition of growth at 10 µM [15]: 38.1% | inhibition of growth at 10 µM (HT-29 [16]): 73% | inhibition of growth at 10 µM [17]: 2.34% | inhibition of growth at 10 µM [18]: 16.6% | inhibition of growth at 10 µM [19]: 78.2% | inhibition of growth at 10 µM (Malme-3M): 0.22% | inhibition of growth at 10 µM [20]: 12.9%

C=C1CC[C@@H]2[C@](C)(COC(C)=O)[C@H](OC(C)=O)CC[C@@]2(C)[C@@H]1CC(NCc1cccc(Cl)c1)C1=CCOC1=O (mixture of isomers)
Activity (SR): 11.54% | Activity (NCI-H23 [1]): 52.71% | Activity (NCI-H322M): 75.37% | Activity [2]: 36.77% | Activity [3]: 84.55% | Activity (KM12 [4]): 46.76% | Activity [5]: 55.56% | Activity [6]: 85.86% | Activity (U-251): 30.91% | Activity [7]: 25.21% | Activity [8]: 64.14% | Activity [9]: 99.69% | Activity [10]: 42.73% | Activity (786-0): 62% | Activity [11]: 48.33% | Activity [12]: 50.51% | Activity (SN12C): 62.07% | Activity [13]: 46.94% | Activity (T47D): 50.73% | inhibition of growth at 10 µM [14]: 78.1% | inhibition of growth at 10 µM (NCI-H522): 47.5% | inhibition of growth at 10 µM [15]: 62.3% | inhibition of growth at 10 µM (HT-29 [16]): 74.5% | inhibition of growth at 10 µM [17]: 46.7% | inhibition of growth at 10 µM [21]: 14.1% | inhibition of growth at 10 µM [18]: 25.9% | inhibition of growth at 10 µM [19]: 87.3% | inhibition of growth at 10 µM (Malme-3M): 23.9% | inhibition of growth at 10 µM [20]: 50.3%

C=C1CC[C@@H]2[C@](C)(COC(C)=O)[C@H](OC(C)=O)CC[C@@]2(C)[C@@H]1CC(Sc1ccccc1)C1=CCOC1=O (mixture of isomers)
Activity (SR): 2.9% | Activity (NCI-H23 [1]): 24.46% | Activity (NCI-H322M): 67.11% | Activity [2]: -68.06% | Activity [3]: 44.69% | Activity (KM12 [4]): 18.58% | Activity [5]: 51.79% | Activity [6]: 86.98% | Activity (U-251): 22.94% | Activity (SK-MEL-5): 13.51% | Activity [7]: 29.37% | Activity [8]: 25.2% | Activity [9]: 39.82% | Activity [10]: 11.88% | Activity (786-0): -31.19% | Activity [11]: 90.6% | Activity [12]: 5.01% | Activity (SN12C): 1.3% | Activity [13]: 35.65% | Activity (T47D): 7.94% | GI50 (CCRF-CEM): 0.26 µM | TGI (CCRF-CEM): 1.19 µM | CC50 (CCRF-CEM; [31]): > 100 µM | GI50 (K562): 0.69 µM | LC50 (50% lethal concentration) (K562): 45.7 µM | TGI (K562): 3.69 µM | GI50 (NCI-H23 [22]): 1.78 µM | LC50 (NCI-H23 [22]): 7.57 µM | TGI (NCI-H23 [22]): 3.67 µM | GI50 [23]: 1.49 µM | LC50 [23]: > 100 µM | TGI [23]: 3.98 µM | GI50 [24]: 0.85 µM | LC50 (concentration killing 50% of cells) [24]: 5.03 µM | TGI [24]: 2.18 µM | GI50 [25]: 0.87 µM | LC50 [25]: 6.98 µM | TGI [25]: 2.59 µM | GI50 (HT-29 [26]): 1.77 µM | LC50 (HT-29 [26]): 8.03 µM | TGI (HT-29 [26]): 3.77 µM | GI50 (KM12 [27]): 1.4 µM | LC50 (KM12 [27]): 6.25 µM | TGI (KM12 [27]): 2.96 µM | GI50 [28]: 1.91 µM | LC50 (concentration killing 50% of cells) [28]: 7.2 µM | TGI [28]: 3.71 µM | GI50 [29]: 1.36 µM | TGI [29]: 3.11 µM | CC50 [29, 31]: 7.12 µM | GI50 (A498): 2.3 µM | TGI (A498): 14 µM | CC50 (A498; [31]): 59.2 µM | GI50 [30]: 1.2 µM | LC50 (concentration killing 50% of cells) [30]: 5.33 µM | TGI [30]: 2.53 µM
